Data on 45 compounds can be found in BindingDB's records for doi:10.1021/jm990967h (Glaxo Wellcome Medicines Research Centre, 2000).

Several values for one entry are separate records, joined by “and”; a condition that tells them apart may be missing. Identical values can stand only once.

This assay concerns the target Gastrin/cholecystokinin type B receptor (Cavia porcellus). Description: In vitro inhibition of binding of [3H]pCCK-8 against Cholecystokinin type B receptor of guinea pig cerebral cortex membranes.
A word on the Ki: it is a measure of affinity in units of concentration, obtained from inhibition or displacement. Read a low Ki as a stronger hold on the target. In turn, `CC(C)(C)CCN1C(=O)C(NC(=O)Nc2ccccc2)C(=O)N(c2ccccc2)c2ccccc21` (stereo not given) showed an inhibitory constant (Ki) of 0.676 nM.
The compound `O=C(O)CCCOc1ccc(NC(=O)NC2C(=O)N(CC34C[C@H]5C[C@@H](C3)C[C@@H](C4)C5)c3ccccc3N(c3ccccc3)C2=O)cc1` (stereo not given in full) had a Ki of 3.8 nM.
For `O=C(Nc1ccccc1)NC1C(=O)N(c2ccccc2)c2ccccc2N(C2CC3CCC2C3)C1=O` (stereo not given) the value was 1.5 nM; for `CC(O)C(O)Nc1cccc(NC(=O)NC2C(=O)N(CC34C[C@H]5C[C@@H](C3)C[C@@H](C4)C5)c3ccccc3N(c3ccccc3)C2=O)c1` (stereo not given in full), 1.3 nM and 0.676 nM.
Regarding `CN(C)c1ccc(NC(=O)NC2C(=O)N(CCC3CCCC3)c3ccccc3N(c3ccccc3F)C2=O)cc1` (stereo not given), the Ki turned out to be 4.7 nM.
`O=C(Nc1cccc(O)c1)NC1C(=O)N(CC23C[C@H]4C[C@@H](C2)C[C@@H](C3)C4)c2ccccc2N(c2ccccc2)C1=O` (stereo not given in full) gave an inhibition constant Ki of 0.575 nM.
With `Nc1cccc(NC(=O)NC2C(=O)N(CC34C[C@H]5C[C@@H](C3)C[C@@H](C4)C5)c3ccccc3N(c3ccccc3)C2=O)c1` (stereo not given in full) the figure was 0.295 nM; with `CN(C)c1cccc(NC(=O)NC2C(=O)N(CCC34C[C@H]5C[C@@H](C3)C[C@@H](C4)C5)c3ccccc3N(c3ccccc3)C2=O)c1` (stereo not given in full), 13 nM; with `O=C(Nc1ccccc1)NC1C(=O)N(CCc2ccccc2)c2ccccc2N(c2ccccc2)C1=O` (stereo not given), 8.3 nM.
Compound `O=C(Nc1cccc(Cl)c1)NC1C(=O)N(c2ccccc2)c2ccccc2N(C2CC3CCC2C3)C1=O` (stereo not given) had a Ki of 1.7 nM.
For `CC(C)CC(C)N1C(=O)C(NC(=O)Nc2ccccc2)C(=O)N(c2ccccc2)c2ccccc21` (stereo not given) the value was 2.1 nM; for `CC(C)CCN1C(=O)C(NC(=O)Nc2cccc(N(C)C)c2)C(=O)N(c2ccccc2F)c2ccccc21` (stereo not given), 0.209 nM and 1.9 nM and 0.251 nM.
`O=C(Nc1cccc(C(=O)OCCN2CCOCC2)c1)NC1C(=O)N(CC23C[C@H]4C[C@@H](C2)C[C@@H](C3)C4)c2ccccc2N(c2ccccc2)C1=O` (stereo not given in full) displayed an inhibitory constant (Ki) of 0.562 nM.
In turn, `CC(C)(C)CCN1C(=O)C(NC(=O)Nc2ccccc2)C(=O)N(c2ccccc2F)c2ccccc21` (stereo not given) displayed an inhibition constant (Ki) of 0.955 nM.
Compound `CN(C)c1cccc(NC(=O)NC2C(=O)N(CC34C[C@H]5C[C@@H](C3)C[C@@H](C4)C5)c3ccccc3N(c3ccccc3)C2=O)c1` (stereo not given in full) returned an inhibition constant (Ki) of 1.1 nM.
With `CCCCN1C(=O)C(NC(=O)Nc2ccccc2)C(=O)N(c2ccccc2)c2ccccc21` (stereo not given) the figure was 6.2 nM; with `CC(C)Cn1nnc(-c2cccc(NC(=O)NC3C(=O)N(CCC(C)(C)C)c4ccccc4N(c4ccccc4)C3=O)c2)n1` (stereo not given), 2.5 nM.
With `O=C(Nc1cccc([N+](=O)[O-])c1)NC1C(=O)N(CC23C[C@H]4C[C@@H](C2)C[C@@H](C3)C4)c2ccccc2N(c2ccccc2)C1=O` (stereo not given in full) the figure was 1.9 nM.
Take `O=C(Nc1ccc(O)cc1)NC1C(=O)N(CC23C[C@H]4C[C@@H](C2)C[C@@H](C3)C4)c2ccccc2N(c2ccccc2)C1=O` (stereo not given in full): affinity was put at a Ki of 0.661 nM.
With `CC(C)(C)CCN1C(=O)C(NC(=O)Nc2cccc(OC(F)(F)F)c2)C(=O)N(c2ccccc2)c2ccccc21` (stereo not given) the figure was 2.9 nM.
With `O=C(Nc1cccc(C(=O)O)c1)NC1C(=O)N(CC23C[C@H]4C[C@@H](C2)C[C@@H](C3)C4)c2ccccc2N(c2ccccc2)C1=O` (stereo not given in full) the figure was 0.977 nM; with `O=C(Nc1ccc(Br)cc1)NC1C(=O)N(CC23C[C@H]4C[C@@H](C2)C[C@@H](C3)C4)c2ccccc2N(c2ccccc2)C1=O` (stereo not given in full), 1.4 nM; with `CN(C)c1cccc(NC(=O)NC2C(=O)N(CCC(C)(C)C)c3ccccc3N(c3ccccc3F)C2=O)c1` (stereo not given), 0.603 nM.
As for `CSc1cccc(NC(=O)NC2C(=O)N(CCC34C[C@H]5C[C@@H](C3)C[C@@H](C4)C5)c3ccccc3N(c3ccccc3)C2=O)c1` (stereo not given in full), the affinity corresponds to a Ki of 60 nM.
`O=C(Nc1cccc(C2N=NN=N2)c1)NC1C(=O)N(CCC2CCCC2)c2ccccc2N(c2ccccc2F)C1=O` (stereo not given) gave a Ki of 0.224 nM. Compared with the last compound, the Ki is about 270-fold lower.
As for `O=C(Nc1ccccc1)NC1C(=O)N(CCC23C[C@H]4C[C@@H](C2)C[C@@H](C3)C4)c2ccccc2N(c2ccccc2)C1=O` (stereo not given in full), the inhibitory constant (Ki) was found to be 34 nM.
For `CC(C)(C1CCCC1)N1C(=O)C(NC(=O)Nc2cccc(C3N=NN=N3)c2)C(=O)N(c2ccccc2)c2ccccc21` (stereo not given) the value was 1.5 nM; for `CCOC(=O)CCCOc1ccc(NC(=O)NC2C(=O)N(CC34C[C@H]5C[C@@H](C3)C[C@@H](C4)C5)c3ccccc3N(c3ccccc3)C2=O)cc1` (stereo not given in full), 5.2 nM.
For `CSc1cccc(NC(=O)NC2C(=O)N(CCC(C)(C)C)c3ccccc3N(c3ccccc3F)C2=O)c1` (stereo not given) the value was 0.724 nM.
In turn, `CN(C)c1cccc(NC(=O)NC2C(=O)N(c3ccccc3)c3ccccc3N(C3[C@H]4C[C@@H]5C[C@@H](C[C@H]3C5)C4)C2=O)c1` (stereo not given in full) gave a Ki of 2.3 nM.
For `CSc1cccc(NC(=O)NC2C(=O)N(CCC(C)C)c3ccccc3N(c3ccccc3F)C2=O)c1` (stereo not given) the value was 0.331 nM.
For `CC(C)(C)CCN1C(=O)C(NC(=O)Nc2cccc(C#N)c2)C(=O)N(c2ccccc2)c2ccccc21` (stereo not given) the value was 0.646 nM; for `CN(C)c1cccc(NC(=O)NC2C(=O)N(CCC3CCCC3)c3ccccc3N(c3ccccc3F)C2=O)c1` (stereo not given), 0.676 nM.
Compound `CSc1cccc(NC(=O)NC2C(=O)N(CCC(C)(C)C)c3ccccc3N(c3ccccc3)C2=O)c1` (stereo not given) had a Ki of 0.49 nM. The Ki values of the last two compounds are within 1.5-fold of each other.
For `O=C(Nc1cccc(CO)c1)NC1C(=O)N(CC23C[C@H]4C[C@@H](C2)C[C@@H](C3)C4)c2ccccc2N(c2ccccc2)C1=O` (stereo not given in full) the value was 0.178 nM; for `CC(C)C(C)CN1C(=O)C(NC(=O)Nc2ccccc2)C(=O)N(c2ccccc2)c2ccccc21` (stereo not given), 1.1 nM.
In the case of `O=C(Nc1ccccc1)NC1C(=O)N(CC2[C@H]3C[C@@H]4C[C@@H](C[C@H]2C4)C3)c2ccccc2N(c2ccccc2)C1=O` (stereo not given in full), the Ki stood at 1.9 nM.
With `CN(C)c1cccc(NC(=O)NC2C(=O)N(c3ccccc3)c3ccccc3N(C3CC4CCC3C4)C2=O)c1` (stereo not given) the figure was 1 nM; with `O=Cc1cccc(NC(=O)NC2C(=O)N(CC34C[C@H]5C[C@@H](C3)C[C@@H](C4)C5)c3ccccc3N(c3ccccc3)C2=O)c1` (stereo not given in full), 0.955 nM.
With `CC(C)CCN1C(=O)C(NC(=O)Nc2ccccc2)C(=O)N(c2ccccc2F)c2ccccc21` (stereo not given) the figure was 7.8 nM.
Compound `O=C(Nc1ccccc1)NC1C(=O)N(CCC2CCCC2)c2ccccc2N(c2ccccc2F)C1=O` (stereo not given) gave a Ki of 0.724 nM.
With `O=C(Nc1cccc(C2N=NN=N2)c1)NC1C(=O)N(c2ccccc2)c2ccccc2N(C2[C@H]3C[C@@H]4C[C@@H](C[C@H]2C4)C3)C1=O` (stereo not given in full) the figure was 2.1 nM; with `CCOC(=O)c1cccc(NC(=O)NC2C(=O)N(CC34C[C@H]5C[C@@H](C3)C[C@@H](C4)C5)c3ccccc3N(c3ccccc3)C2=O)c1` (stereo not given in full), 3 nM.
With `CC(C)(C)CCN1C(=O)C(NC(=O)Nc2cccc(C3N=NN=N3)c2)C(=O)N(c2ccccc2)c2ccccc21` (stereo not given) the figure was 0.288 nM.
For `CC(=O)Nc1cccc(NC(=O)NC2C(=O)N(CC34C[C@H]5C[C@@H](C3)C[C@@H](C4)C5)c3ccccc3N(c3ccccc3)C2=O)c1` (stereo not given in full) the value was 1.3 nM.
